# Experimental data from patent US9028806B2, “Method for impregnation with supercritical CO2” (Pierre Fabre Medicament, priority 2009, dated 2015).
# What was measured:
# [1] = Dissolution kinetics of vinflunine in pH 6.8 buffer; type: physicochemical; conditions: equivalent to 50 mg vinflunine in 50 ml pH 6.8 buffer, 400 rpm
# Method: In a 100 ml Erlenmeyer, introduce an accurately measured test sample equivalent to 50 mg of vinflunine. Add 50 ml of pH 6.8 buffer. Place under magnetic stirring at 400 rpm. Take a 2 ml sample under magnetic stirring at 15, 30, 60 and 120 minutes. Filter these samples on Gelman GHP Acrodisc 0.45 μm polypropylene filters. The solution should be clear.
# Determine the vinflunine content by means of liquid chromatography.
# [2] = Exploratory Pk on rats, oral route (bioavailability)
# Method: The study was conducted with exploratory Pk on rats: 2 mg/kg in a single dose, oral route
# Administration vehicle: distilled water (Aguettant)
# Positive more Electrospray (ESI+) detection LC/MS/MS (liquid chromatography/mass spectrometry/mass spectrometry) bioanalysis method
# Pharmacokinetic analysis with Kinetica (Thermo Instruments, US)
# [3] = Dissolution kinetics of ketoprofen in water at 37° C.; type: physicochemical; conditions: equivalent to 50 mg ketoprofen in 50 ml water, 400 rpm
# Method: In a 100 ml Erlenmeyer, introduce an accurately measured test sample equivalent to 50 mg of ketoprofen, pure or impregnating the cross-linked PVP. Add 50 ml of water. Place under magnetic stirring at 400 rpm in a water bath at 37° C.+/−2° C. […] Filter these samples on Gelman GHP Acrodisc 0.45 μm polypropylene filters. The solution should be clear.
# Determine the ketoprofen content by means of liquid chromatography.
SMILES,Vinflunine Dissolution 15 min ([1]; 15 min),Vinflunine Dissolution 30 min ([1]; 30 min),Vinflunine Dissolution 60 min ([1]; 60 min),Vinflunine Dissolution 120 min ([1]; 120 min),"CL ([2]; fasted rats, 2 mg/kg single dose, oral route)","Vinflunine level at 0 ([2]; fasted rats, 2 mg/kg single dose, oral route, time 0)","Vinflunine level at 0.25 ([2]; fasted rats, 2 mg/kg single dose, oral route, time 0.25)","Vinflunine level at 0.5 ([2]; fasted rats, 2 mg/kg single dose, oral route, time 0.5)","Vinflunine level at 1 ([2]; fasted rats, 2 mg/kg single dose, oral route, time 1)","Vinflunine level at 2 ([2]; fasted rats, 2 mg/kg single dose, oral route, time 2)","Vinflunine level at 4 ([2]; fasted rats, 2 mg/kg single dose, oral route, time 4)","Vinflunine level at 6 ([2]; fasted rats, 2 mg/kg single dose, oral route, time 6)","Vinflunine level at 8 ([2]; fasted rats, 2 mg/kg single dose, oral route, time 8)","Vinflunine level at 24 ([2]; fasted rats, 2 mg/kg single dose, oral route, time 24)","AUC(0-t) ([2]; rat, in vivo, po, 2 mg/kg)","Cmax ([2]; rat, in vivo, po, 2 mg/kg)","Tmax ([2]; rat, in vivo, po, 2 mg/kg)","half-life ([2]; rat, in vivo, po, 2 mg/kg)",Ketoprofen Dissolution 15 min ([3]; 15 min),Ketoprofen Dissolution 60 min ([3]; 60 min)
"CC[C@]12C=CCN3CC[C@@]4(c5cc([C@@]6(C(=O)OC)C[C@@H]7C[C@@H](C(C)(F)F)CN(Cc8c6[nH]c6ccccc86)C7)c(OC)cc5N(C)[C@H]4[C@@](O)(C(=O)OC)[C@@H]1OC(C)=O)[C@@H]32 [Vinflunine base, Vinflunine]",252 µg/mL,387 µg/mL,520 µg/mL,606 µg/mL,8.70 L/h,0,19.37,11.75,17.90,14.93,13.80,12.03,10.88,2.59,200 ng·h/mL,19.4 ng/mL,0.25 h,7.9 h,,
"CC(C(=O)O)c1cccc(C(=O)c2ccccc2)c1 (centres unmarked) [ketoprofen, Ketoprofen]",,,,,,,,,,,,,,,,,,,173 µg/mL,171 µg/mL
